# From ChEMBL document CHEMBL1122817, “Synthesis and biological activity of substituted [[3(S)-(acylamino)-2-oxo-1-azetidinyl]oxy]acetic acids. A new class of heteroatom-activated beta-lactam antibiotics” (1985)
# Experiments:
# [1] = system: Acinetobacter calcoaceticus; assay: Minimum inhibitory concentration against Acinetobacter calcoaceticus AC12; assay type: functional
# [2] = system: Geobacillus stearothermophilus; assay: Inhibitory activity against Bacillus Stearothermophilus C451 at 10 mg/mL concentration using Agar disk plate assay; assay type: functional
# Bacillus subtilis [3] = assay: Inhibitory activity against Bacillus Subtilis X12M at 10 mg/mL concentration using Agar disk plate assay; assay type: functional
# Citrobacter freundii = assay: Minimum inhibitory concentration against Citrobacter freundii CF17; assay type: functional
# Escherichia coli [4] = assay: Minimum inhibitory concentration against Escherichia coli N10; assay type: functional
# Escherichia coli [5] = assay: Minimum inhibitory concentration against Escherichia coli TEM; assay type: functional
# Klebsiella aerogenes [6] = assay: Minimum inhibitory concentration against Enterobacter aerogenes C32; assay type: functional
# Escherichia coli [7] = assay: Inhibitory activity against Escherichia coli X580 at 10 mg/mL concentration using Agar disk plate assay; assay type: functional
# Escherichia coli [8] = assay: Inhibitory activity against Escherichia coli X161 at 10 mg/mL concentration using Agar disk plate assay; assay type: functional
# Escherichia coli [9] = assay: Inhibitory activity against Escherichia coli X161M at 10 mg/mL concentration using Agar disk plate assay; assay type: functional
# Enterobacter cloacae [10] = assay: Minimum inhibitory concentration against Enterobacter cloacae 265A; assay type: functional
# Enterobacter cloacae [11] = assay: Minimum inhibitory concentration against Enterobacter cloacae EB5; assay type: functional
# Haemophilus influenzae [12] = assay: Minimum inhibitory concentration against Haemophilus influenza 76; assay type: functional
# Haemophilus influenzae [13] = assay: Minimum inhibitory concentration against Haemophilus influenza C.L; assay type: functional
# Klebsiella pneumoniae [14] = assay: Minimum inhibitory concentration against Klebsiella pneumoniae KAE; assay type: functional
# Klebsiella pneumoniae [15] = assay: Minimum inhibitory concentration against Klebsiella pneumoniae X26; assay type: functional
# Klebsiella pneumoniae [16] = assay: Minimum inhibitory concentration against Klebsiella pneumoniae X68; assay type: functional
# Morganella morganii = assay: Minimum inhibitory concentration against Proteus morganii PR15; assay type: functional
# Pseudomonas aeruginosa [17] = assay: Minimum inhibitory concentration against Pseudomonas aeruginosa (4 strains); assay type: functional
# Proteus vulgaris [18] = assay: Inhibitory activity against Proteus vulgaris X45 at 10 mg/mL concentration using Agar disk plate assay; assay type: functional
# Ralstonia solanacearum [19] = assay: Inhibitory activity against Pseudomonas solanacearum X185 at 10 mg/mL concentration using Agar disk plate assay; assay type: functional
# Proteus inconstans = assay: Minimum inhibitory concentration against Proteus inconstans PR33; assay type: functional; conditions: Providencia alcalifaciens
# Providencia rettgeri = assay: Minimum inhibitory concentration against Proteus rettgeri C24; assay type: functional
# Salmonella typhi [20] = assay: Minimum inhibitory concentration against Salmonella typhi 1335; assay type: functional, Salmonella enterica subsp. enterica serovar Typhi; conditions: Salmonella enterica
# Salmonella typhi [21] = assay: Minimum inhibitory concentration against Salmonella typhi X514; assay type: functional, Salmonella enterica subsp. enterica serovar Typhi; conditions: Salmonella enterica
# Micrococcus luteus [22] = assay: Inhibitory activity against Sarcina lutea X186 at 10 mg/mL concentration using Agar disk plate assay; assay type: functional
# [23] = system: Salmonella enterica subsp. enterica serovar Gallinarum; assay: Inhibitory activity against Salmonella gallinarum X142 at 10 mg/mL concentration using Agar disk plate assay; assay type: functional
# Serratia marcescens [24] = assay: Minimum inhibitory concentration against Serratia marcescens SE3; assay type: functional
# Serratia marcescens [25] = assay: Inhibitory activity against Serratia marcescens X99 at 10 mg/mL concentration using Agar disk plate assay; assay type: functional
# [26] = system: Staphylococcus epidermidis; assay: Minimum inhibitory concentration against Staphylococcus epidermidis (2 strains); assay type: functional
# Streptococcus pyogenes = assay: Minimum inhibitory concentration against Streptococcus pyogenes C203; assay type: functional
# Streptococcus pneumoniae = assay: Minimum inhibitory concentration against Streptococcus pneumoniae Park I; assay type: functional
# Streptococcus = assay: Minimum inhibitory concentration against Streptococcus sp. Group D (2 strains); assay type: functional
# Staphylococcus aureus [27] = assay: Minimum inhibitory concentration against Staphylococcus aureus (4 strains); assay type: functional
# Klebsiella aerogenes [28] = assay: Minimum inhibitory concentration against Enterobacter aerogenes EB 17; assay type: functional
# Escherichia coli [29] = assay: Minimum inhibitory concentration against Escherichia coli EC14; assay type: functional
# Serratia marcescens [30] = assay: Minimum inhibitory concentration against Serratia marcescens X99; assay type: functional
# Bacillus subtilis [31] = assay: Inhibitory activity against Bacillus Subtilis X12 at 10 mg/mL concentration using Agar disk plate assay; assay type: functional
# Staphylococcus aureus [32] = assay: Inhibitory activity against Staphylococcus aureus X1 at 10 mg/mL concentration using Agar disk plate assay; assay type: functional
# [33] = system: Geobacillus stearothermophilus; assay: Inhibitory activity against Bacillus Stearothermophilus C451 at 1 mg/mL concentration using Agar disk plate assay; assay type: functional
# Bacillus subtilis [34] = assay: Inhibitory activity against Bacillus Subtilis X12 at 1 mg/mL concentration using Agar disk plate assay; assay type: functional
# Bacillus subtilis [35] = assay: Inhibitory activity against Bacillus Subtilis X12M at 1 mg/mL concentration using Agar disk plate assay; assay type: functional
# Escherichia coli [36] = assay: Inhibitory activity against Escherichia coli X580 at 1 mg/mL concentration using Agar disk plate assay; assay type: functional
# Escherichia coli [37] = assay: Inhibitory activity against Escherichia coli X161 at 1 mg/mL concentration using Agar disk plate assay; assay type: functional
# Escherichia coli [38] = assay: Inhibitory activity against Escherichia coli X161M at 1 mg/mL concentration using Agar disk plate assay; assay type: functional
# Proteus vulgaris [39] = assay: Inhibitory activity against Proteus vulgaris X45 at 1 mg/mL concentration using Agar disk plate assay; assay type: functional
# Pseudomonas aeruginosa [40] = assay: Inhibitory activity against Pseudomonas aeruginosa X48 at 10 mg/mL concentration using Agar disk plate assay; assay type: functional
# Ralstonia solanacearum [41] = assay: Inhibitory activity against Pseudomonas solanacearum X185 at 1 mg/mL concentration using Agar disk plate assay; assay type: functional
# [42] = system: Salmonella enterica subsp. enterica serovar Gallinarum; assay: Inhibitory activity against Salmonella gallinarum X142 at 1 mg/mL concentration using Agar disk plate assay; assay type: functional
# Micrococcus luteus [43] = assay: Inhibitory activity against Sarcina lutea X186 at 1 mg/mL concentration using Agar disk plate assay; assay type: functional
# Serratia marcescens [44] = assay: Inhibitory activity against Serratia marcescens X99 at 1 mg/mL concentration using Agar disk plate assay; assay type: functional
smiles,measurement,setting,value
CO/N=C(/C(=O)N[C@H]1CN(OCC(=O)[O-])C1=O)c1csc(N)n1.[K+],MIC,[1],> 64 µg/mL
same,Zone of inhibition,[2],24 mm
same,Zone of inhibition,Bacillus subtilis [3],13 mm
same,MIC,Citrobacter freundii,16 µg/mL
same,MIC,Escherichia coli [4],8 µg/mL
same,MIC,Escherichia coli [5],32 µg/mL
same,MIC,Klebsiella aerogenes [6],8 µg/mL
same,Zone of inhibition,Escherichia coli [7],37 mm
same,Zone of inhibition,Escherichia coli [8],20 mm
same,Zone of inhibition,Escherichia coli [9],19 mm
same,MIC,Enterobacter cloacae [10],> 64 µg/mL
same,MIC,Enterobacter cloacae [11],16 µg/mL
same,MIC,Haemophilus influenzae [12],16 µg/mL
same,MIC,Haemophilus influenzae [13],16 µg/mL
same,MIC,Klebsiella pneumoniae [14],> 64 µg/mL
same,MIC,Klebsiella pneumoniae [15],8 µg/mL
same,MIC,Klebsiella pneumoniae [16],8 µg/mL
same,MIC,Morganella morganii,32 µg/mL
same,MIC,Pseudomonas aeruginosa [17],> 64 µg/mL
same,Zone of inhibition,Proteus vulgaris [18],21 mm
same,Zone of inhibition,Ralstonia solanacearum [19],16 mm
same,MIC,Proteus inconstans,2 µg/mL
same,MIC,Providencia rettgeri,2 µg/mL
same,MIC,Salmonella typhi [20],8 µg/mL
same,MIC,Salmonella typhi [21],4 µg/mL
same,Zone of inhibition,Micrococcus luteus [22],21 mm
same,Zone of inhibition,[23],22 mm
same,MIC,Serratia marcescens [24],16 µg/mL
same,Zone of inhibition,Serratia marcescens [25],16 mm
same,MIC,[26],> 64 µg/mL
same,MIC,Streptococcus pyogenes,16 µg/mL
same,MIC,Streptococcus pneumoniae,32 µg/mL
same,MIC,Streptococcus,> 64 µg/mL
same,MIC,Staphylococcus aureus [27],> 64 µg/mL
same,MIC,Klebsiella aerogenes [28],8 µg/mL
same,MIC,Escherichia coli [29],4 µg/mL
same,MIC,Serratia marcescens [30],16 µg/mL
C[C@H]1[C@H](NC(=O)Cc2ccccc2)C(=O)N1OCC(=O)O,Zone of inhibition,Bacillus subtilis [31],11 mm
same,Zone of inhibition,Bacillus subtilis [3],18 mm
same,Zone of inhibition,Escherichia coli [7],26 mm
same,Zone of inhibition,Proteus vulgaris [18],10 mm
same,Zone of inhibition,Micrococcus luteus [22],23 mm
same,Zone of inhibition,Staphylococcus aureus [32],13 mm
CO/N=C(/C(=O)N[C@@H]1C(=O)N(S(=O)(=O)[O-])[C@H]1C)c1csc(N)n1.[K+],MIC,[1],4 µg/mL
same,Zone of inhibition,[33],25 mm
same,Zone of inhibition,[2],30 mm
same,Zone of inhibition,Bacillus subtilis [31],23 mm
same,Zone of inhibition,Bacillus subtilis [34],15 mm
same,Zone of inhibition,Bacillus subtilis [3],30 mm
same,Zone of inhibition,Bacillus subtilis [35],16 mm
same,MIC,Citrobacter freundii,0.25 µg/mL
same,MIC,Escherichia coli [4],0.125 µg/mL
same,MIC,Escherichia coli [5],0.125 µg/mL
same,MIC,Klebsiella aerogenes [6],0.125 µg/mL
same,Zone of inhibition,Escherichia coli [7],66 mm
same,Zone of inhibition,Escherichia coli [36],54 mm
same,Zone of inhibition,Escherichia coli [8],40 mm
same,Zone of inhibition,Escherichia coli [37],40 mm
same,Zone of inhibition,Escherichia coli [9],54 mm
same,Zone of inhibition,Escherichia coli [38],40 mm
same,MIC,Enterobacter cloacae [10],> 64 µg/mL
same,MIC,Enterobacter cloacae [11],0.125 µg/mL
same,MIC,Haemophilus influenzae [12],0.25 µg/mL
same,MIC,Haemophilus influenzae [13],0.5 µg/mL
same,MIC,Klebsiella pneumoniae [14],> 64 µg/mL
same,MIC,Klebsiella pneumoniae [15],0.06 µg/mL
same,MIC,Klebsiella pneumoniae [16],0.125 µg/mL
same,MIC,Morganella morganii,0.25 µg/mL
same,MIC,Pseudomonas aeruginosa [17],> 64 µg/mL
same,Zone of inhibition,Proteus vulgaris [18],46 mm
same,Zone of inhibition,Proteus vulgaris [39],40 mm
same,Zone of inhibition,Pseudomonas aeruginosa [40],25 mm
same,Zone of inhibition,Ralstonia solanacearum [19],40 mm
same,Zone of inhibition,Ralstonia solanacearum [41],29 mm
same,MIC,Proteus inconstans,0.03 µg/mL
same,MIC,Providencia rettgeri,0.03 µg/mL
same,MIC,Salmonella typhi [20],0.125 µg/mL
same,MIC,Salmonella typhi [21],0.06 µg/mL
same,Zone of inhibition,Micrococcus luteus [22],27 mm
same,Zone of inhibition,[23],36 mm
same,Zone of inhibition,[42],48 mm
same,MIC,Serratia marcescens [24],0.25 µg/mL
same,Zone of inhibition,Micrococcus luteus [43],25 mm
same,Zone of inhibition,Staphylococcus aureus [32],22 mm
same,Zone of inhibition,Serratia marcescens [25],40 mm
same,MIC,[26],> 64 µg/mL
same,Zone of inhibition,Serratia marcescens [44],33 mm
same,MIC,Streptococcus pyogenes,4 µg/mL
same,MIC,Streptococcus pneumoniae,4 µg/mL
same,MIC,Streptococcus,> 64 µg/mL
same,MIC,Staphylococcus aureus [27],> 64 µg/mL
same,MIC,Klebsiella aerogenes [28],0.125 µg/mL
same,MIC,Escherichia coli [29],0.06 µg/mL
same,MIC,Serratia marcescens [30],0.25 µg/mL
O=C(O)CON1C[C@H](NC(=O)Cc2ccccc2)C1=O,Zone of inhibition,Bacillus subtilis [31],16 mm
same,Zone of inhibition,Bacillus subtilis [3],20 mm
same,Zone of inhibition,Escherichia coli [7],11 mm
same,Zone of inhibition,Proteus vulgaris [18],10 mm
same,Zone of inhibition,Micrococcus luteus [22],23 mm
same,Zone of inhibition,Staphylococcus aureus [32],23 mm
